Experimental data as given in patent US6352714B1, “Method of producing a metal nutrient for an animal feed” (DER, Inc., priority 2000, dated 2002).

Tested on: nursery pigs
Assay: Chromium supplementation feeding study in nursery pigs (growth performance)
Assay type: in vivo
Settings: diet with 400 ppb chromium
Excerpt: A study was made to determine the effects of chromium leather hydrolysate supplementation in nursery pigs, as compared with other complexes, namely chromium picolinate and a yeast chromium complex. In this study, three groups of forty pigs each, with a mean weaning age of 17.6 days, were fed diets containing the chromium leather hydrolysate proteinate, chromium tripicolinate, or yeast chromium complex. In addition, a control group of forty pigs were not fed a supplement. In all cases, the chromium containing complex contained 400 ppb of chromium. Data relating to the average daily gains were obtained over three phases with Phase I being 0-7 days, Phase II being 8-14 days, and Phase III being 15-21 days.
In the above Table, ADG is “average daily gain” and ADFI is “average daily feed intake”.

## chromium tripicolinate [Chromium picolinate]
Phase I, 0-7 days
  ADFI (average daily feed intake): 545 gms
  ADG (average daily gain): 250 gms
  Gain/Feed: 0.54
Phase II, 8-14 days
  ADFI (average daily feed intake): 1.43 kg
  ADG (average daily gain): 0.92 kg
  Gain/Feed: 0.67
Phase III, 15-21 days
  ADFI (average daily feed intake): 2.61
  ADG (average daily gain): 1.26 kg
  Gain/Feed: 0.48
